# Measured values: ChEMBL document CHEMBL1201862, “PubChem BioAssay data set” (2004)
#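 A five-concentration, 48-hour dose response in 96-well plates underlies each endpoint, interpolated linearly between surrounding concentrations. GI50 = concentration required for 50% inhibition of growth.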 Activity calls are given as the source filed them. Rule as the data show it: active = GI50 up to about 1.1 µM and inactive = higher.
# Experiments:
# Test in all cases: NCI anticancer screen, dose series, 48 h
# DU-145 = system: DU-145
# RPMI-8226 = system: RPMI-8226
# EKVX = system: EKVX
# CAKI-1 = system: CAKI-1
# SK-MEL-28 = system: SK-MEL-28
# A498 = system: A498
# SNB-19 = system: SNB-19
# HCT-15 = system: HCT-15
# NCI-H23 = system: NCI-H23
# MCF7 = system: MCF7
# HT-29 = system: HT-29
# MDA-MB-231 = system: MDA-MB-231
# HOP-62 = system: HOP-62
# LOX IMVI = system: LOX IMVI
# MDA-MB-435 = system: MDA-MB-435
# HL-60 = system: HL-60
# SF-268 = system: SF-268
# SNB-75 = system: SNB-75
# BT-549 = system: BT-549
# MDA-N = system: MDA-N
# Malme-3M = system: Malme-3M
# KM12 = system: KM12
# SK-MEL-2 = system: SK-MEL-2
# UACC-257 = system: UACC-257
# U-251 = system: U-251
# OVCAR-3 = system: OVCAR-3
# K562 = system: K562
# UO-31 = system: UO-31
# OVCAR-5 = system: OVCAR-5
# NCI-H226 = system: NCI-H226
# OVCAR-4 = system: OVCAR-4
# SF-295 = system: SF-295
# HCC 2998 = system: HCC 2998
# ACHN = system: ACHN
# PC-3 = system: PC-3
# T47D = system: T47D
# NCI-H460 = system: NCI-H460
# TK-10 = system: TK-10
# HCT-116 = system: HCT-116
# Hs-578T = system: Hs-578T
# SK-MEL-5 = system: SK-MEL-5
# OVCAR-8 = system: OVCAR-8
# SR = system: SR
# IGROV-1 = system: IGROV-1
# 786-0 = system: 786-0
# SW-620 = system: SW-620
# SN12C = system: SN12C
# MOLT-4 = system: MOLT-4
# RXF 393 = system: RXF 393
# NCI-H522 = system: NCI-H522
# NCI/ADR-RES = system: NCI/ADR-RES
# UACC-62 = system: UACC-62
# COLO 205 = system: COLO 205
# SF-539 = system: SF-539
# A549 = system: A549
# CCRF-CEM = system: CCRF-CEM
# M14 = system: M14
# HOP-92 = system: HOP-92
# SK-OV-3 = system: SK-OV-3
smiles,measurement,setting,value
CC1=Nc2sc3c(c2C2=NCCN12)CCCC3,GI50,DU-145,30.5 µM (inactive)
same,GI50,RPMI-8226,19.8 µM (inactive)
same,GI50,EKVX,23.4 µM (inactive)
same,GI50,CAKI-1,22.9 µM (inactive)
same,GI50,SK-MEL-28,28.6 µM (inactive)
same,GI50,A498,39.9 µM (inactive)
same,GI50,SNB-19,39.6 µM (inactive)
same,GI50,HCT-15,29.9 µM
same,GI50,NCI-H23,18.7 µM (inactive)
same,GI50,MCF7,23.7 µM (inactive)
same,GI50,HT-29,18.6 µM (inactive)
same,GI50,MDA-MB-231,33.3 µM (inactive)
same,GI50,HOP-62,40.6 µM (inactive)
same,GI50,LOX IMVI,17.6 µM (inactive)
same,GI50,MDA-MB-435,34 µM (inactive)
same,GI50,HL-60,22.8 µM (inactive)
same,GI50,SF-268,52.2 µM (inactive)
same,GI50,SNB-75,37.2 µM (inactive)
same,GI50,BT-549,19.1 µM (inactive)
same,GI50,MDA-N,22.3 µM (inactive)
same,GI50,Malme-3M,25.7 µM (inactive)
same,GI50,KM12,16.8 µM (inactive)
same,GI50,SK-MEL-2,35.8 µM (inactive)
same,GI50,UACC-257,20.2 µM (inactive)
same,GI50,U-251,29 µM (inactive)
same,GI50,OVCAR-3,28.2 µM (inactive)
same,GI50,K562,23.6 µM (inactive)
same,GI50,UO-31,17.1 µM (inactive)
same,GI50,OVCAR-5,30.7 µM (inactive)
same,GI50,NCI-H226,15.1 µM (inactive)
same,GI50,OVCAR-4,42.4 µM (inactive)
same,GI50,SF-295,33.5 µM (inactive)
same,GI50,HCC 2998,29.9 µM (inactive)
same,GI50,ACHN,25.8 µM (inactive)
same,GI50,PC-3,20 µM (inactive)
same,GI50,T47D,32.7 µM (inactive)
same,GI50,NCI-H460,19.7 µM (inactive)
same,GI50,TK-10,36.8 µM (inactive)
same,GI50,HCT-116,20.9 µM (inactive)
same,GI50,Hs-578T,27.5 µM (inactive)
same,GI50,SK-MEL-5,28.2 µM (inactive)
same,GI50,OVCAR-8,15.3 µM (inactive)
same,GI50,SR,23.2 µM (inactive)
same,GI50,IGROV-1,18.3 µM (inactive)
same,GI50,786-0,21.8 µM (inactive)
same,GI50,SW-620,25.4 µM (inactive)
same,GI50,SN12C,29.9 µM (inactive)
same,GI50,MOLT-4,26.1 µM (inactive)
same,GI50,RXF 393,31.3 µM (inactive)
same,GI50,NCI-H522,19.5 µM (inactive)
same,GI50,NCI/ADR-RES,14.8 µM (inactive)
same,GI50,UACC-62,15.3 µM (inactive)
same,GI50,COLO 205,32.3 µM (inactive)
CC(C)(CCC(C)(C)c1ccccc1)c1ccccc1,GI50,DU-145,18.4 µM (inactive)
same,GI50,RPMI-8226,15.1 µM (inactive)
same,GI50,EKVX,17.7 µM (inactive)
same,GI50,CAKI-1,22.5 µM (inactive)
same,GI50,SK-MEL-28,20 µM (inactive)
same,GI50,A498,17.9 µM (inactive)
same,GI50,SNB-19,18.3 µM (inactive)
same,GI50,SF-539,21.1 µM (inactive)
same,GI50,HCT-15,20.9 µM
same,GI50,NCI-H23,18.2 µM (inactive)
same,GI50,MCF7,17.9 µM (inactive)
same,GI50,HT-29,14.5 µM (inactive)
same,GI50,MDA-MB-231,16.7 µM (inactive)
same,GI50,HOP-62,17.4 µM (inactive)
same,GI50,LOX IMVI,17.5 µM (inactive)
same,GI50,MDA-MB-435,21.9 µM (inactive)
same,GI50,HL-60,16.3 µM (inactive)
same,GI50,SF-268,17.3 µM (inactive)
same,GI50,SNB-75,18 µM (inactive)
same,GI50,BT-549,20.2 µM (inactive)
same,GI50,MDA-N,22.2 µM (inactive)
same,GI50,Malme-3M,16 µM (inactive)
same,GI50,KM12,15.3 µM (inactive)
same,GI50,SK-MEL-2,16.6 µM (inactive)
same,GI50,UACC-257,14.3 µM (inactive)
same,GI50,A549,28.8 µM (inactive)
same,GI50,U-251,16.7 µM (inactive)
same,GI50,OVCAR-3,16.3 µM (inactive)
same,GI50,CCRF-CEM,18.4 µM (inactive)
same,GI50,K562,21.8 µM (inactive)
same,GI50,OVCAR-5,18.8 µM (inactive)
same,GI50,NCI-H226,20.7 µM (inactive)
same,GI50,OVCAR-4,16.4 µM (inactive)
same,GI50,SF-295,17 µM (inactive)
same,GI50,M14,18.7 µM (inactive)
same,GI50,ACHN,17.8 µM (inactive)
same,GI50,PC-3,30.8 µM (inactive)
same,GI50,T47D,16.7 µM (inactive)
same,GI50,NCI-H460,17.2 µM (inactive)
same,GI50,TK-10,21.6 µM (inactive)
same,GI50,HCT-116,14.7 µM (inactive)
same,GI50,Hs-578T,22.1 µM (inactive)
same,GI50,SK-MEL-5,14.4 µM (inactive)
same,GI50,OVCAR-8,27 µM (inactive)
same,GI50,SR,21 µM (inactive)
same,GI50,IGROV-1,24.9 µM (inactive)
same,GI50,786-0,15.7 µM (inactive)
same,GI50,SW-620,17.2 µM (inactive)
same,GI50,HOP-92,19 µM (inactive)
same,GI50,SN12C,18.2 µM (inactive)
same,GI50,MOLT-4,18.5 µM (inactive)
same,GI50,RXF 393,12.9 µM (inactive)
same,GI50,NCI-H522,15.7 µM (inactive)
same,GI50,SK-OV-3,27.1 µM (inactive)
same,GI50,NCI/ADR-RES,19.5 µM (inactive)
same,GI50,UACC-62,19 µM (inactive)
same,GI50,COLO 205,18.1 µM (inactive)
c1ccc2c(Nc3ncco3)cccc2c1,GI50,DU-145,> 10 µM (inactive)
same,GI50,EKVX,> 10 µM (inactive)
same,GI50,CAKI-1,> 10 µM (inactive)
same,GI50,SK-MEL-28,> 10 µM (inactive)
same,GI50,A498,> 10 µM (inactive)
same,GI50,SNB-19,> 10 µM (inactive)
same,GI50,SF-539,> 10 µM (inactive)
same,GI50,HCT-15,> 10 µM
same,GI50,NCI-H23,> 10 µM (inactive)
same,GI50,MCF7,> 10 µM (inactive)
same,GI50,HT-29,> 10 µM (inactive)
same,GI50,MDA-MB-231,> 10 µM (inactive)
same,GI50,HOP-62,> 10 µM (inactive)
same,GI50,LOX IMVI,> 10 µM (inactive)
same,GI50,MDA-MB-435,> 10 µM (inactive)
same,GI50,SF-268,> 10 µM (inactive)
same,GI50,SNB-75,> 10 µM (inactive)
same,GI50,BT-549,> 10 µM (inactive)
same,GI50,MDA-N,> 10 µM (inactive)
same,GI50,Malme-3M,> 10 µM (inactive)
same,GI50,KM12,> 10 µM (inactive)
same,GI50,UACC-257,> 10 µM (inactive)
same,GI50,A549,> 10 µM (inactive)
same,GI50,U-251,> 10 µM (inactive)
same,GI50,OVCAR-3,> 10 µM (inactive)
same,GI50,CCRF-CEM,> 10 µM (inactive)
same,GI50,K562,> 10 µM (inactive)
same,GI50,UO-31,> 10 µM (inactive)
same,GI50,OVCAR-5,> 10 µM (inactive)
same,GI50,NCI-H226,> 10 µM (inactive)
same,GI50,OVCAR-4,> 10 µM (inactive)
same,GI50,SF-295,> 10 µM (inactive)
same,GI50,HCC 2998,> 10 µM (inactive)
same,GI50,M14,> 10 µM (inactive)
same,GI50,ACHN,> 10 µM (inactive)
same,GI50,PC-3,> 10 µM (inactive)
same,GI50,T47D,> 10 µM (inactive)
same,GI50,NCI-H460,> 10 µM (inactive)
same,GI50,TK-10,> 10 µM (inactive)
same,GI50,HCT-116,> 10 µM (inactive)
same,GI50,Hs-578T,> 10 µM (inactive)
same,GI50,SK-MEL-5,> 10 µM (inactive)
same,GI50,OVCAR-8,> 10 µM (inactive)
same,GI50,SR,0.001 µM (active)
same,GI50,IGROV-1,> 10 µM (inactive)
same,GI50,786-0,> 10 µM (inactive)
same,GI50,SW-620,> 10 µM (inactive)
same,GI50,HOP-92,> 10 µM (inactive)
same,GI50,SN12C,> 10 µM (inactive)
same,GI50,MOLT-4,> 10 µM (inactive)
same,GI50,NCI-H522,> 10 µM (inactive)
same,GI50,SK-OV-3,> 10 µM (inactive)
same,GI50,NCI/ADR-RES,> 10 µM (inactive)
same,GI50,UACC-62,> 10 µM (inactive)
same,GI50,COLO 205,> 10 µM (inactive)
